Key:
[1] = tested on: MCF10A expressing inducible ErbB2 receptor; assay: Cell traction force measurement from crossbow micropattern shortening, ErbB2 inducible cells; type: cell-based, human; conditions: ErbB2 receptors activated with ligand, 1 μM, 48 hr before measurement, FIG. 5C
Excerpt: When actin cables have an unpredictable spatial distribution, a given deformation cannot be directly assigned to a defined force magnitude. Indeed, forces applied on adjacent adhesion sites both affect local deformations, due to the continuous nature of the substrate. Each deformation results from local and distant forces. So the calculation of the force field is highly dependent on the spatial distribution of force application sites and the relationship between deformation and forces varies from one cell to the other. The inventors hypothesized that in cells developing a reproducible architecture and a controlled pattern of force application, a given local deformation could be assigned to a defined value of the contractile force. […] When the deformation was measured along the shortest, and therefore most contracted, cell axis, the correlation was improved (FIG. 4C). […] On the crossbow, a single image acquisition was sufficient to measure the bar length and read the corresponding average cell traction force using the calibration curve (FIG. 5F). […]
The culture of MCF10A cells and the generation of ΔCK2β cell line were described previously (Deshiere et al (2008) Mol Cell Biochem 316(1-2):107-113). […] Substrate relaxation was assessed by detaching cells with trypsin. […]

[2] = tested on: MCF10A cells; assay: Cell traction force measurement from crossbow micropattern bar shortening on PAA; type: cell-based, human
Method: Non-tumorigenic human epithelial cells from the mammary gland, MCF10A, were plated on the micropatterned PAA substrates. Cells specifically attached to the fibronectin coated micropatterns since non-exposed PAA regions prevented protein adsorption (FIG. 2D). The effect of micropattern geometry on cell traction forces orientation was tested on various shapes: disc, pacman and crossbow (FIG. 3A). Spread cells exerted traction forces on the micropattern that could be measured by looking at the displacement of fluorescent beads embedded in the PAA gel (see FIG. 3B and Material and Methods). Particle Image Velocimetry followed by individual particle tracking were used to measure bead displacements ((Marganski et al (2003) Methods Enzymol 361:197-211; Sabass et al (2008) Biophys J 94(1):207-220). Force fields were calculated from the bead displacement fields by using the Fourier transform traction cytometry ((Sabass et al, supra; Butler et al (2002) Am J Physiol Cell Physiol 282(3):C595-605). Force fields exerted by individual cells were overlaid and averaged to quantify their reproducibility (FIG. 3C, D). On homogeneously coated regions cells developed forces that were randomly distributed from one cell to the other. In cells constrained on disc shaped micropatterns, forces were still randomly oriented but their magnitudes were lowered due to reduced cell spreading. In cells constrained on pacman shaped micropatterns, forces distribution was geometrically biased due to enhanced cell contraction above non adhesive regions. […] Importantly, most of the traction forces were reproducibly oriented upward, along the straight adhesive bar on the extremity of which the inventors measured the highest pressure (FIG. 3D). […]
When actin cables have an unpredictable spatial distribution, a given deformation cannot be directly assigned to a defined force magnitude. […] When the deformation was measured along the shortest, and therefore most contracted, cell axis, the correlation was improved (FIG. 4C). […]

Compound: CCC(C)(C)C(=O)C(=O)N1CCCC[C@H]1C(=O)O[C@H](CCc1ccc(OC)c(OC)c1)c1cccc(OCC(=O)NCCNC(=O)COc2cccc([C@@H](CCc3ccc(OC)c(OC)c3)OC(=O)[C@@H]3CCCCN3C(=O)C(=O)C(C)(C)CC)c2)c1 [AP 1510]
- level of cell contraction vs WT cells [1]: no significant changes

Compound: Cc1ccc2c(c1)C(=O)C1(O)CCN(c3ccccc3)C1=N2 (stereo not shown) [Blebbistatin]
- force magnitude decrease over time ([2]; 50 μM, single cell, FIG. 5B): follows a single exponential decay
- force inhibition profile in response to increasing dose ([2]; increasing dose, crossbow bar length, FIG. 5A): matched the myosin II inhibition profile

Compound: TGFb1: known to induce epithelial to mesenchymal transition; from R&D systems
- level of cell contraction vs WT cells (crossbow shortening) ([2]; 2 ng/mL for 2 days before plating, FIG. 5C): significantly higher level of cell contraction

From US20140024041A1, “SOFT SUBSTRATE FOR CELL CULTURE AND PROCESS FOR PREPARING THE SAME” (COMMISSARIAT A L'ENERGIE ATOMIQUE ET AUX ENERGIES …, priority 2011, published 2014)
